Common to all, as to format: biochemical
One experiment deals with c-MET kinase (Homo sapiens (Human), UniProt P08581). Description: Assay of small molecular compounds for inhibiting the activity of c-MET kinase (LANCE TR-FRET). To be noted: read-out: CMET IC50. On the procedure:
The assay is based on the LANCE TR-FRET technology of Perkin Elmer Inc., and the assay method is as follows: • 1. Dilution of compounds: a total of 11 concentrations were obtained using a 3-fold gradient dilution from the highest concentration of 2500 nM (the maximum final concentration of the drug used in this assay was 2500 nM, and the minimum final concentration was 0.042 nM). • 2. 2.5 μL of the gradient-diluted compounds were taken with a transfer pipette to a 384-well plate. • 3. Addition of enzyme: 5 μL of 2×c-MET kinase solution (with a concentration of 2 nM) was taken with a transfer pipette to the corresponding reaction well of the 384-well plate, mixed well and pre-reacted at room temperature for 5 minutes. • 4. 2.5 μL 4× Ultra ULight™-JAK-1 (Tyr1023) Peptide (with a concentration of 400 nM)/ATP (with a concentration of 40 μM) mixture was taken with a transfer pipette to the corresponding reaction well of the 384-well plate. • 5. Negative control: 2.5 μL/well 4× substrate/ATP mixture and 7.5 μL 1× Kinase Assay Buffer were added to the wells of the 384-well plate. • 6. Positive control: 2.5 μL/well 4× substrate/ATP mixture, 2.5 μL/well 1× Kinase Assay Buffer containing 16% DMSO, and 5 μL/well 2× c-MET kinase solution were added to the 384-well plate. The final concentration of DMSO in the reaction system was 4%. • 7. The mixture was mixed well and then centrifuged and reacted at room temperature in dark for 60 min. • 8. Termination of the enzymatic reaction: 5 μL of 4× stop solution was taken with a transfer pipette to the wells of the 384-well plate, mixed and then centrifuged, and reacted at room temperature for 5 min. • 9. Development of the reaction: 5 μL of 4× detection solution was taken with a transfer pipette to the wells of the 384-well plate for color development, and the mixture was mixed and then centrifuged and reacted at room temperature for 60 min. • 10. The 384-well plate was placed into the Envision plate reader and the signal was detected using the appropriate program. • 11. Analysis and processing of the raw data: • 12. The drug concentrations and the corresponding inhibition rates were input into GraphPad Prism5 for calculation, and the inhibition rate of the compounds were calculated as follows: inhibition rate (%)=(reading of positive well−reading of experimental well)/(reading of positive control well−reading of negative control well)×100%. Processing with GraphPad Prism5 software yielded the corresponding IC50 values (the concentration of the compound at which 50% of the highest inhibition of the enzyme is achieved).
(In TR-FRET formats the signal depends on donor and acceptor labels being close together.)

The next experiment has as its target TRKA kinase (Homo sapiens (Human), UniProt P04629). Description: Assay of small molecular compounds for inhibiting the activity of TRKA kinase (LANCE TR-FRET). On the procedure: The assay of small molecular compounds for inhibiting the activity of TRKA kinase is based on the LANCE TR-FRET technology of Perkin Elmer Inc., and the assay method is as follows: • 1. […] 2.5 μL of the gradient-diluted compounds were taken with a transfer pipette to a 384-well plate. • 3. Addition of enzyme: 5 μL of 2×TRKA kinase solution (with a concentration of 2 nM) was taken with a transfer pipette to the corresponding reaction well of the 384-well plate, mixed well and pre-reacted at room temperature for 5 minutes. • 4. 2.5 μL 4× Ultra ULight-labeled TK Peptide (with a concentration of 400 nM)/ATP (with a concentration of 40 μM) mixture was taken with a transfer pipette to the corresponding reaction well of the 384-well plate. • 5. Negative control: 2.5 μL/well 4× substrate/ATP mixture and 7.5 μL 1× Kinase Assay Buffer were added to the wells of the 384-well plate.
(§1) Positive control: 2.5 μL/well 4× substrate/ATP mixture, 2.5 μL/well 1× Kinase Assay Buffer containing 4% DMSO, and 5 μL/well 2×TRKA kinase solution were added to the 384-well plate. The final concentration of DMSO in the reaction system was 1%. • 6. The mixture was mixed well and then centrifuged and reacted at room temperature in dark for 60 min. • 7. Termination of the enzymatic reaction: 5 μL of 4× stop solution was taken with a transfer pipette to the wells of the 384-well plate, mixed and then centrifuged, and reacted at room temperature for 5 min. • 8. Development of the reaction: 5 μL of 4× detection solution was taken with a transfer pipette to the wells of the 384-well plate for color development, and the mixture was mixed and then centrifuged and reacted at room temperature for 60 min. • 9. The 384-well plate was placed into the Envision plate reader and the signal was detected using the appropriate program.

The target of the next experiment is MER kinase (Homo sapiens (Human), UniProt Q12866). The experiment is described as follows: Assay of small molecular compounds for inhibiting the activity of MER kinase (LANCE TR-FRET). How it is done: The assay of small molecular compounds for inhibiting the activity of MER kinase is based on the LANCE TR-FRET technology of Perkin Elmer Inc., and the assay method is as follows: • 1. Dilution of compounds: a total of 11 concentrations were obtained using a 3-fold gradient dilution from the highest concentration of 2500 nM (the maximum final concentration of the drug used in this assay was 2500 nM, and the minimum final concentration was 0.042 nM). • 2. 2.5 μL of the gradient-diluted compounds were taken with a transfer pipette to a 384-well plate. • 3. Addition of enzyme: 5 μL of 2×MER kinase solution (with a concentration of 1 nM) was taken with a transfer pipette to the corresponding reaction well of the 384-well plate, mixed well and pre-reacted at room temperature for 5 minutes. • 4. 2.5 μL 4× ULight-labeled Ploy GT (with a concentration of 200 nM)/ATP (with a concentration of 20 μM) mixture was taken with a transfer pipette to the corresponding reaction well of the 384-well plate. • 5. Negative control: 2.5 μL/well 4× substrate/ATP mixture and 7.5 μL 1× Kinase Assay Buffer were added to the wells of the 384-well plate.
Sequence of MER kinase (Q12866 21-999): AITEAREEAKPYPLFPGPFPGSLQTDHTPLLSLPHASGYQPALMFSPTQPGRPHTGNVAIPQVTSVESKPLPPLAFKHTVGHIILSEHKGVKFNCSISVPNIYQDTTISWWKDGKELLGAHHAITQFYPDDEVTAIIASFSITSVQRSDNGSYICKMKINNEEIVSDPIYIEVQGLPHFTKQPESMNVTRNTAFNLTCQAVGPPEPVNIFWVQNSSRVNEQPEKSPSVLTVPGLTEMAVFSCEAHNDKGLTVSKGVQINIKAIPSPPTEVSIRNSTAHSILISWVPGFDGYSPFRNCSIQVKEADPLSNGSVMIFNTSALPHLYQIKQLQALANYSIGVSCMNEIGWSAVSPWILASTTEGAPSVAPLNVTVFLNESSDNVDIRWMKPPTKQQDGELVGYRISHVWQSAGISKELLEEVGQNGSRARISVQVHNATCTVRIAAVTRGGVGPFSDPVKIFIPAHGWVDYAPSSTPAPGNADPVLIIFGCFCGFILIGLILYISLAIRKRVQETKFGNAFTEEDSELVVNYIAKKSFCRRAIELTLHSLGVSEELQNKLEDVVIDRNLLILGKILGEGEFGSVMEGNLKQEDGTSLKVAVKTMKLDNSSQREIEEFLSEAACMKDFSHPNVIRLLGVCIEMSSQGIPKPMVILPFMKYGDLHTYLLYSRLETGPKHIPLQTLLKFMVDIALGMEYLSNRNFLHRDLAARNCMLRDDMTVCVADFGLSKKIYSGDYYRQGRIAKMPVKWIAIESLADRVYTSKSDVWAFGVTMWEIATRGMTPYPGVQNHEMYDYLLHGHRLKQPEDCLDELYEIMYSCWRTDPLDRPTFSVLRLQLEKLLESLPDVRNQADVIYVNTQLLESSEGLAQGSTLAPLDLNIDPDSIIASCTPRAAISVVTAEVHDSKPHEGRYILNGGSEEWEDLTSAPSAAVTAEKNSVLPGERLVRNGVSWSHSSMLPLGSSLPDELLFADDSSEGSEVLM
as §1, with “2×MER” for “2×TRKA”, “program. • 10. Analysis and processing of the raw data:” for “program.”
The drug concentrations and the corresponding inhibition rates were input into GraphPad Prism5 for calculation, and the inhibition rate of the compounds were calculated as follows: inhibition rate (%)=(reading of positive well−reading of experimental well)/(reading of positive control well−reading of negative control well)×100%. Processing with GraphPad Prism5 software yielded the corresponding IC50 values (the concentration of the compound at which 50% of the highest inhibition of the enzyme is achieved).

Structures are written as SMILES.

Sequence of c-MET kinase (P08581 25-1390): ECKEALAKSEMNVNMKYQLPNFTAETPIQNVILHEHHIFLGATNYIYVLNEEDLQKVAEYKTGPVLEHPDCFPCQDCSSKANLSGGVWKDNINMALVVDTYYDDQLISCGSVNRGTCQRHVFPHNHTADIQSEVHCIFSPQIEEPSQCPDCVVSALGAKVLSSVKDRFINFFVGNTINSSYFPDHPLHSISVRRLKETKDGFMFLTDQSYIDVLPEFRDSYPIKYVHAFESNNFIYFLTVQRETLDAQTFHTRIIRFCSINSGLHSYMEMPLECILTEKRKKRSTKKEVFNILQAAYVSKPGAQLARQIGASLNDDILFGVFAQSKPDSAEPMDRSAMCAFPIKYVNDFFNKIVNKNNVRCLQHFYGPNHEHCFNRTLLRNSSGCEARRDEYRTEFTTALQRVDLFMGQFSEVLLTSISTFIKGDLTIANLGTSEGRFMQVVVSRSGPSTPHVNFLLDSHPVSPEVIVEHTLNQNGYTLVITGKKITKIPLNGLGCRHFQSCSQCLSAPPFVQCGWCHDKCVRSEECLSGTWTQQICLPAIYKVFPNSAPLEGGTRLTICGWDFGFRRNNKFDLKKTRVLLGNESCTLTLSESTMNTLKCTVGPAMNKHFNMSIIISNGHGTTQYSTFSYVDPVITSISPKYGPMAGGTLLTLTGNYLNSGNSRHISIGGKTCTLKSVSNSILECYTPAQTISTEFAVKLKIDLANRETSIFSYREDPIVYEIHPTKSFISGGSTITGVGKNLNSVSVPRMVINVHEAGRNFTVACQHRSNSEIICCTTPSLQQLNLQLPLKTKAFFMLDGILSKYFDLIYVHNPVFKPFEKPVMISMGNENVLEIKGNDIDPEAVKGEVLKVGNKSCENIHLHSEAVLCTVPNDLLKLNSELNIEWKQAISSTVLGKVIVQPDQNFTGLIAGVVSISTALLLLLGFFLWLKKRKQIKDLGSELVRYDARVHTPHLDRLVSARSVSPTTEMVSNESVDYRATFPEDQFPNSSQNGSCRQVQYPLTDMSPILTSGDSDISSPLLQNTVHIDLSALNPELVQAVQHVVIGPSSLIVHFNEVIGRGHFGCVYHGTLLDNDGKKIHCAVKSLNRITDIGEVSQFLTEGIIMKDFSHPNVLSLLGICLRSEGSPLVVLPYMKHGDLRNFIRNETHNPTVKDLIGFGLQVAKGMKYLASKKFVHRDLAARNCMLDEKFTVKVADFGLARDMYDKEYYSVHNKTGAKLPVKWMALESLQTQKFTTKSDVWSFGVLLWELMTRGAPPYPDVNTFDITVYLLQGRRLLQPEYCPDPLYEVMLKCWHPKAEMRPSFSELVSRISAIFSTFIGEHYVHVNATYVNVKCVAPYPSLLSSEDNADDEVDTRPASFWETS
Sequence of TRKA kinase (P04629 33-796): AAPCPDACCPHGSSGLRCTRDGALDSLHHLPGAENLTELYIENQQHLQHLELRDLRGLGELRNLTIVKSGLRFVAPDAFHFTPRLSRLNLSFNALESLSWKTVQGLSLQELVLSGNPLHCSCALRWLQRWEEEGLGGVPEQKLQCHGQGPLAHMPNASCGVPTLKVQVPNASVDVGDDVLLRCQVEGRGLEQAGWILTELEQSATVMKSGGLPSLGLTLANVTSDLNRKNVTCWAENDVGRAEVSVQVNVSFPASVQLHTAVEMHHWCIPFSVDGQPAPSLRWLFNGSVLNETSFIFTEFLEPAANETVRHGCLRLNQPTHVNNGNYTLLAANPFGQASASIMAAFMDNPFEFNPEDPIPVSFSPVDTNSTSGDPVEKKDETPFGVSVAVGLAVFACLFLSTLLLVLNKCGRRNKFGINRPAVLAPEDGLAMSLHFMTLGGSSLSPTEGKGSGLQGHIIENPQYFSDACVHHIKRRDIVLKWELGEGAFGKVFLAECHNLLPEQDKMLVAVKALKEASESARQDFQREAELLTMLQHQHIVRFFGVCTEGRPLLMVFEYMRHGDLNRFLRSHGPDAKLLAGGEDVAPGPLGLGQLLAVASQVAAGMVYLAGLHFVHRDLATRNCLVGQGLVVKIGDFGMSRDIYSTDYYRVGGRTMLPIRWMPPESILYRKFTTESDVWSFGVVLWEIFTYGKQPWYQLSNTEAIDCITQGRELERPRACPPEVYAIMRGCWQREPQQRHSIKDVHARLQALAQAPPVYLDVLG

What is called IC50 is the concentration that gives 50% inhibition. Regarding `COc1cc2nccc(Oc3ccc(NC(=O)c4cn(C(C)C)c(=O)n(-c5ccc(C)cc5)c4=O)cc3F)c2c2c1OCCO2` [Example 107, N-(3-fluoro-4-((5-methoxy-2,3-dihydro-[1,4]dioxino[2,3-f]quinolin-10-yl)oxy)phenyl)-3-(4-methylphenyl)-1-isopropyl-2,4-dioxo-1,2,3,4-tetrahydropyrimidine-5-carboxamide], the figures for the half-maximal inhibitory concentration (IC50) at c-MET kinase, at TRKA kinase and against MER kinase were 50 to 500 nM, 500 to 5000 nM and no more than 50 nM, respectively.

Consider `COc1cc2nccc(Oc3ccc(NC(=O)c4cn(CC(C)C)c(=O)n(-c5ccc(F)cc5)c4=O)cc3F)c2c2c1OCCO2` [Example 47, N-(3-fluoro-4-((5-methoxy-2,3-dihydro-[1,4]dioxino[2,3-f]quinolin-10-yl)oxy)phenyl)-3-(4-fluorophenyl)-1-isobutyl-2,4-dioxo-1,2,3,4-tetrahydropyrimidine-5-carboxamide], for which the IC50 at c-MET kinase was no more than 50 nM; against TRKA kinase, 50 to 500 nM; against MER kinase, 50 to 500 nM.

For `COc1cc2nccc(Oc3ccc(NC(=O)c4ccn(-c5ccc(F)cc5C)n4)cc3F)c2c2c1OCCO2` [Example 23, 1-(4-fluoro-2-methylphenyl)-N-(3-fluoro-4-((5-methoxy-2,3-dihydro-[1,4]dioxino[2,3-f]quinolin-10-yl)oxy)phenyl)-1H-pyrazole-3-carboxamide], the figures for the IC50 on c-MET kinase, at TRKA kinase and on MER kinase were 50 to 500 nM, 50 to 500 nM and 500 to 5000 nM, respectively.

In the case of `CCOc1cn(-c2ccc(F)cc2C)nc1C(=O)Nc1ccc(Oc2ccnc3cc(OC)c4c(c23)OCCO4)c(F)c1` [Example 25, 1-(4-fluoro-2-methylphenyl)-N-(3-fluoro-4-((5-methoxy-2,3-dihydro-[1,4]dioxino[2,3-f]quinolin-10-yl)oxy)phenyl)-4-ethoxy-1H-pyrazole-3-carboxamide], the IC50 on c-MET kinase, against TRKA kinase and at MER kinase was 50 to 500 nM in each case.

As to `Cn1cc(C(=O)Nc2ccc(Oc3ccnc4cc(OCC5CC5)c5c(c34)OCCO5)c(F)c2)c(=O)n(-c2ccc(F)cc2)c1=O` [Example 84, N-(3-fluoro-4-((5-(cyclopropylmethoxy)-2,3-dihydro-[1,4]dioxino[2,3-f]quinolin-10-yl)oxy)phenyl)-3-(4-fluorophenyl)-1-methyl-2,4-dioxo-1,2,3,4-tetrahydropyrimidine-5-carboxamide], the IC50 at c-MET kinase, against TRKA kinase and against MER kinase was 50 to 500 nM in each case.

With `Cn1cc(C(=O)Nc2ccc(Oc3ccnc4cc(OCCCC#N)c5c(c34)OCCO5)cc2Cl)c(=O)n(-c2ccc(F)cc2)c1=O` [Example 133, N-(2-chloro-4-((5-(3-cyanopropoxy)-2,3-dihydro-[1,4]dioxino[2,3-f]quinolin-10-yl)oxy)phenyl)-3-(4-fluorophenyl)-1-methyl-2,4-dioxo-1,2,3,4-tetrahydropyrimidine-5-carboxamide], the IC50 was no more than 50 nM on c-MET kinase, 50 to 500 nM at TRKA kinase and 500 to 5000 nM on MER kinase.

Take `COc1cc2nccc(Oc3ccc(NC(=O)c4cn(CCCN5CCOCC5)c(=O)n(-c5ccc(F)cc5)c4=O)cc3F)c2c2c1OCCO2` [Example 102, N-(3-fluoro-4-((5-methoxy-2,3-dihydro-[1,4]dioxino[2,3-f]quinolin-10-yl)oxy)phenyl)-3-(4-fluorophenyl)-1-(3-morpholinopropyl)-2,4-dioxo-1,2,3,4-tetrahydropyrimidine-5-carboxamide]: the half-maximal inhibitory concentration (IC50) on c-MET kinase is no more than 50 nM; at TRKA kinase it was 50 to 500 nM; on MER kinase, no more than 50 nM.

In the case of `COc1cc2nccc(Oc3ccc(NC(=O)c4cn(CC5CC5)c(=O)n(-c5ccc(F)cc5)c4=O)cc3F)c2c2c1OCCO2` [Example 48, N-(3-fluoro-4-((5-methoxy-2,3-dihydro-[1,4]dioxino[2,3-f]quinolin-10-yl)oxy)phenyl)-3-(4-fluorophenyl)-1-(cyclopropylmethyl)-2,4-dioxo-1,2,3,4-tetrahydropyrimidine-5-carboxamide], the results for the IC50 at c-MET kinase, at TRKA kinase and against MER kinase were no more than 50 nM, 50 to 500 nM and 50 to 500 nM, respectively.

Regarding `COc1cc2nccc(Oc3ccc(NC(=O)c4cn(C(C)C)c(=O)n(-c5ccc(Cl)cc5)c4=O)cc3F)c2c2c1OCCO2` [Example 108, N-(3-fluoro-4-((5-methoxy-2,3-dihydro-[1,4]dioxino[2,3-f]quinolin-10-yl)oxy)phenyl)-3-(4-chlorophenyl)-1-isopropyl-2,4-dioxo-1,2,3,4-tetrahydropyrimidine-5-carboxamide], the IC50 at c-MET kinase lay in the range of 50 to 500 nM; against TRKA kinase, 500 to 5000 nM; at MER kinase, 50 to 500 nM.

Consider `COc1cc2nccc(Oc3ccc(NC(=O)c4cn(C(C)C)c(=O)n(-c5ccc(F)cc5)c4=O)cc3F)c2c2c1OCCO2` [Example 14, N-(3-fluoro-4-((5-methoxy-2,3-dihydro-[1,4]dioxino[2,3-f]quinolin-10-yl)oxy)phenyl)-3-(4-fluorophenyl)-1-isopropyl-2,4-dioxo-1,2,3,4-tetrahydropyrimidine-5-carboxamide], for which the 50% inhibitory concentration (IC50) on c-MET kinase is no more than 50 nM; on TRKA kinase, 50 to 500 nM; at MER kinase it was no more than 50 nM.

With `COc1cc2nccc(Oc3ccc(NC(=O)c4cn(C(C)C)c(=O)n(-c5ccccc5F)c4=O)cc3F)c2c2c1OCCO2` [Example 110, N-(3-fluoro-4-((5-methoxy-2,3-dihydro-[1,4]dioxino[2,3-f]quinolin-10-yl)oxy)phenyl)-3-(2-fluorophenyl)-1-isopropyl-2,4-dioxo-1,2,3,4-tetrahydropyrimidine-5-carboxamide], the values for the 50% inhibitory concentration (IC50) on c-MET kinase, against TRKA kinase and against MER kinase were no more than 50 nM, 500 to 5000 nM and no more than 50 nM, respectively.

These data come from US12202835B2, “Substituted aromatic ring-linked dioxinoquinazolines and dioxinoquinolines as kinase inhibitors” (BEIJING SCITECH-MQ PHARMACEUTICALS LIMITED, priority 2018, dated 2025).
